Key:
PrP^Sc in ScN2a cells = PrP^Sc in ScN2a cells (Mus musculus, UniProt P04925); experiment: cell-based
ScN2a cells = details: mouse
PrP^Sc in ScGT1 cells = PrP^Sc in ScGT1 cells (Mus musculus, UniProt P04925); experiment: cell-based
ScGT1 cells = details: for % cell viability ± SEM ScGT1: mouse

Chain of PrP^Sc in ScGT1 cells (P04925 23-230 limits assumed): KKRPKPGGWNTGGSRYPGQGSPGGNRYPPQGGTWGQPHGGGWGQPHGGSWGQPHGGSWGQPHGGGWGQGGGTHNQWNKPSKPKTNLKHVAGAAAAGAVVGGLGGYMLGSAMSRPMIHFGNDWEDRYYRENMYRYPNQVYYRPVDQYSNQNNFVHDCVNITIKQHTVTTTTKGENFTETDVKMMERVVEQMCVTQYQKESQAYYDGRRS
Chain of PrP^Sc in ScN2a cells (P04925 23-230 limits assumed): as above

Row | Molecule | EC50 (PrP^Sc in ScN2a cells) | % cell viability ± SEM ScN2a (ScN2a cells) | EC50 (PrP^Sc in ScGT1 cells) | % cell viability ± SEM ScGT1 (ScGT1 cells) | cytotoxicity to the neurons (ScGT1 cells) | dead cells (ScGT1 cells)
1 | CN(C)CCCN1c2ccccc2CCc2ccccc21 [Imipramime, imipramine] | 5.5 ± 0.5 µM | 100 ± 5% | 6.2 ± 0.4 µM | 100 ± 7% | – | –
2 | CCN(CC)CCCC(C)Nc1c2ccc(Cl)cc2nc2ccc(OC)cc12 (centres unmarked) [Quinacrine, quinacrine] | – | 100 ± 2% | – | 100 ± 4% | – | –
3 | sodium polystyrenesulfonate [PSS] | – | – | – | – | weak cytotoxicity | around 20%

Source: patent US20110262546A1 (priority 2008, published 2011)
